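Method: 48-hour compound exposure of cells in 96-well plates, five concentrations, linear interpolation of endpoints. GI50 marks 50% less growth.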 Active and inactive are the calls of the source. Cut-off read from the data, not from the text of the source: active = GI50 up to about 1.1 µM and inactive = higher. *1 amine or outer side, *2 acyl side, *3 side chain or, on linkers, in order; H or OH if unused. Where a SMILES comes first, the peptide text is derived from it. The star is where a group is joined. γGlu = O=C(O)[CH](CCC(=O)[*:2])N[*:1]; NHOH = ON*
Experiments:
Assay in all cases: inhibition of tumour cell growth, NCI panel, 48 h
[1] = system: CCRF-CEM
[2] = system: HCT-116
[3] = system: RXF 393
[4] = system: PC-3
[5] = system: NCI-H460
[6] = system: COLO 205
[7] = system: OVCAR-4
[8] = system: TK-10
[9] = system: NCI-H522
[10] = system: KM12
[11] = system: MOLT-4
[12] = system: UACC-62
[13] = system: LOX IMVI
[14] = system: U-251
[15] = system: SNB-75
[16] = system: UO-31
[17] = system: CAKI-1
[18] = system: MCF7
[19] = system: MDA-MB-231
[20] = system: OVCAR-5

Measured: GI50

Cc1nnc(N)s/c1=N/O
inactive: [1] > 100 µM | [2] > 100 µM | [3] > 100 µM | [4] > 100 µM | [5] > 100 µM | [6] > 100 µM | [7] > 100 µM | [8] > 100 µM | [9] > 100 µM | [10] > 100 µM | [11] > 100 µM | [12] > 100 µM | [13] > 100 µM | [14] > 100 µM | [15] > 100 µM | [16] > 100 µM | [17] > 100 µM | [18] > 100 µM | [19] > 100 µM | [20] > 100 µM

NC(CCC(=O)NC(CCC(=O)NO)C(=O)NCC(=O)O)C(=O)O (stereo not given) (γGlu-Glu(NHOH)-Gly-OH; configuration not given here)
inactive: [1] > 100 µM | [2] > 100 µM | [3] > 100 µM | [4] > 100 µM | [5] > 100 µM | [6] > 100 µM | [7] > 100 µM | [8] > 100 µM | [9] > 100 µM | [10] > 100 µM | [11] > 100 µM | [12] > 100 µM | [13] > 100 µM | [14] > 100 µM | [15] > 100 µM | [16] > 100 µM | [17] > 100 µM | [18] > 100 µM | [19] > 100 µM | [20] > 100 µM

From ChEMBL document CHEMBL1201862, “PubChem BioAssay data set” (2004)
